One data set addresses T1, human mGluR5d (Homo sapiens, UniProt P41594).
T1 construct: expressed in transfected cells
Description: FLIPR assay: functional assessment of mGluR5 antagonism (intracellular calcium mobilization). Type of data set: cell-based. Particulars: cells expressing human mGluR5d; read-out: FLIPR hmGluR5d. The source says: The properties of the compounds of the invention can be analyzed using standard assays for pharmacological activity. Examples of glutamate receptor assays are well known in the art as described in for example Aramori et al., Neuron 8:757 (1992), Tanabe et al., Neuron 8:169 (1992), Miller et al., J. Neuroscience 15:6103 (1995), Balazs, et al., J. Neurochemistry 69:151 (1997). The methodology described in these publications is incorporated herein by reference. Conveniently, the compounds of the invention can be studied by means of an assay (FLIPR) that measures the mobilization of intracellular calcium, [Ca^2+]i in cells expressing mGluR5 or another assay (IP3) that measures inositol phosphate turnover.
Cells expressing human mGluR5d as described in WO97/05252 are seeded at a density of 100,000 cells per well on collagen coated clear bottom 96-well plates with black sides and experiments are done 24 h following seeding. […] The fluorescence signal is sampled 50 times at 1 second intervals followed by 3 samples at 5 second intervals immediately after each of the two additions. Responses are measured as the difference between the peak height of the response to agonist, less the background fluorescence within the sample period. […]

Data set [1] is described as follows: Determination of brain to plasma ratio in rat. The class given is in vivo. Particulars: brain and plasma, female Sprague Dawley rats, read-out: Brain/Plasma Ratio of compound in Rat. How it is done:
Brain to plasma ratios are estimated in female Sprague Dawley rats. The compound is dissolved in water or another appropriate vehicle. For determination of brain to plasma ratio the compound is administrated as a subcutaneous, or an intravenous bolus injection, or an intravenous infusion, or an oral administration. At a predetermined time point after the administration a blood sample is taken with cardiac puncture. The rat is terminated by cutting the heart open, and the brain is immediately retained. The blood samples are collected in heparinized tubes and centrifuged within 30 minutes, in order to separate the plasma from the blood cells. The plasma is transferred to 96-well plates and stored at −20° C. until analysis. The brains are divided in half, and each half is placed in a pre-tarred tube and stored at −20° C. until analysis. Prior to the analysis, the brain samples are thawed and 3 ml/g brain tissue of distilled water is added to the tubes. The brain samples are sonicated in an ice bath until the samples are homogenized. Both brain and plasma samples are precipitated with acetonitrile. After centrifugation, the supernatant is diluted with 0.2% formic acid. […] After reconstitution of the residuals the samples are ready for injection onto the HPLC column.

T1 sequence (P41594 21-942 isoform P41594-3 limits assumed): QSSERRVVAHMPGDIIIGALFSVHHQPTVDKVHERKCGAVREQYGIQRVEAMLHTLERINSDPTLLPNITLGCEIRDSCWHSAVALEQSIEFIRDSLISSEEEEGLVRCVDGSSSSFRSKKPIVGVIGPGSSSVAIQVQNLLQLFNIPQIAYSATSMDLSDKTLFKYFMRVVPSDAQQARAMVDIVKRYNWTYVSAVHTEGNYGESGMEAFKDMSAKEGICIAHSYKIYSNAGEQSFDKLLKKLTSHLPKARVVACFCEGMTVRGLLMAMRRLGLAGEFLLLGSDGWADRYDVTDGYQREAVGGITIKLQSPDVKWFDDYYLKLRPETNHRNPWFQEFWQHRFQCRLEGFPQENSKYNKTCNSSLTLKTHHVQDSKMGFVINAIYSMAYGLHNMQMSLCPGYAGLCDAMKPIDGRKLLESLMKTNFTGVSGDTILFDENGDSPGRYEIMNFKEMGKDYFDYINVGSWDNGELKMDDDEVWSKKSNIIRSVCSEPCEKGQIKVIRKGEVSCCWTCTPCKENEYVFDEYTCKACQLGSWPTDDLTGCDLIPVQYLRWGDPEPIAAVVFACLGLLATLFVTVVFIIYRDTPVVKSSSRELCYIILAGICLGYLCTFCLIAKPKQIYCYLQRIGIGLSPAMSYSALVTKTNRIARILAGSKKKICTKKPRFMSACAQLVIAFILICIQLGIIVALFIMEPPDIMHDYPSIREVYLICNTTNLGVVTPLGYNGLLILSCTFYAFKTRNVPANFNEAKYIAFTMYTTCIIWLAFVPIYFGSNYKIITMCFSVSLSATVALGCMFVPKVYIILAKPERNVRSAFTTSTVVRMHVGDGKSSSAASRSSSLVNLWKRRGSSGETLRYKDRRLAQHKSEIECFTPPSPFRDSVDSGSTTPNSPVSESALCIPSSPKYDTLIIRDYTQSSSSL

Take `Cc1cc(-c2nnc(N3CCC[C@@H]3c3nnn(-c4cccc(Cl)c4)n3)n2C)ccn1` [Example 15.1, 4-(5-{(R)-2-[2-(3-Chloro-phenyl)-2H-tetrazol-5-yl]-pyrrolidin-1-yl}-4-methyl-4H-[1,2,4]triazol-3-yl)-2-methyl-pyridine]: on human mGluR5d, the IC50 was 11 nM. The Kp in data set [1] came to 0.27.

With `COc1cc(-c2nnc(N3CCC[C@@H]3c3nnn(-c4cccc(C#N)c4)n3)n2C)ccn1` [Example 15.3, 3-(5-{(R)-1-[5-(2-Methoxy-pyridin-4-yl)-4-methyl-4H-[1,2,4]triazol-3-yl]-pyrrolidin-2-yl}-tetrazol-2-yl)-benzonitrile], the IC50 at human mGluR5d came out at 50 nM. Moreover, the Kp in data set [1] was 0.13.

The values above are taken from US20070259926A1, “mGluR5 modulators III” (AstraZeneca AB, priority 2006, published 2007).
